Laboratory results published in patent publication US20230114728A1 (Venatorx Pharmaceuticals, Inc., priority 2019, published 2023).

Target: T1, A. baumannii PBP2 (Acinetobacter baumannii, UniProt D0C8Z9)
T1 construct: made in house
T1 sequence (D0C8Z9 1-672): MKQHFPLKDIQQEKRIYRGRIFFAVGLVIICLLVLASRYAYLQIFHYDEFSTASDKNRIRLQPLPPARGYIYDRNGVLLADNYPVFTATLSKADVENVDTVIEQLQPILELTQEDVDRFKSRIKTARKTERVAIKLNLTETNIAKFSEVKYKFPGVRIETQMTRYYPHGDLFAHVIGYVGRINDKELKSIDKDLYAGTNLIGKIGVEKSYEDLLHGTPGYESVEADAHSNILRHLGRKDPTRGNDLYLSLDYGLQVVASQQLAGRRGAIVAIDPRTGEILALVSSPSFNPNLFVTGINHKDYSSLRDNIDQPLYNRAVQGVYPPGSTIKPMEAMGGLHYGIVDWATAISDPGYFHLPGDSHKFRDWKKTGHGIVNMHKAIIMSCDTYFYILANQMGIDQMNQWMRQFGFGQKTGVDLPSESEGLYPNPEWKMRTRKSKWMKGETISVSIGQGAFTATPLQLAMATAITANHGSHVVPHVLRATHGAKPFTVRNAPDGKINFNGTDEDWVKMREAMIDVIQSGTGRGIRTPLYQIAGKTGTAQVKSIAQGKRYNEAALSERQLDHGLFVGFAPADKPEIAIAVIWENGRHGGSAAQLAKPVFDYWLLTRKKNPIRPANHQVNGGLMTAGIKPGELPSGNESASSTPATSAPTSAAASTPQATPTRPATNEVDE
Test: Bocillin-FL fluorescence polarization competition binding assay, A. baumannii PBP2
Details: fluorescence polarization competition binding assay using Bocillin-FL; read-out: A. baumannii PBP2 Potency
Summary of the method: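 A. baumannii PBP2 (2.5 μM) and PBP3 (0.2 μM) were run in 25 mM Tris pH 8.0 buffer with Tween 20; E. coli PBP3 (1.5 μM) and N. gonorrhoeae PBP2 ([…]) in 50 mM Hepes pH 8.0 buffer.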

Structure (SMILES)	EC50 [µM]
CCN1CCN(C(=O)N[C@@H](C(=O)N[C@H]2Cc3cccc(C(=O)O)c3OB2O)c2c(O)cc(O)cc2F)C(=O)C1=O (single isomer, unassigned) [Example 182]	> 100
CS(=O)(=O)N1CCN(C(=O)N[C@@H](C(=O)N[C@H]2Cc3ccc(F)c(C(=O)O)c3OB2O)c2cc(F)c(O)c(O)c2Cl)C1=O (single isomer, unassigned) [Example 189]	> 100
O=C(NCCCN1CCN(C(=O)NC(C(=O)N[C@H]2Cc3ccc(F)c(C(=O)O)c3OB2O)c2ncc(O)cc2F)C(=O)C1=O)c1ccc(O)c(O)c1Cl (stereo partly drawn) [Example 3, (3R)-3-(2-(4-(3-(2-chloro-3,4-dihydroxybenzamido)propyl)-2,3-dioxopiperazine-1-carboxamido)-2-(3-fluoro-5-hydroxypyridin-2-yl)acetamido)-7-fluoro-2-hydroxy-3,4-dihydro-2H-benzo[e][1,2]oxaborinine-8-carboxylic acid]	> 100
NCCCN1CCN(C(=O)N[C@@H](C(=O)N[C@H]2Cc3cc(Cl)c(F)c(C(=O)O)c3OB2O)c2c(F)cc(O)c(O)c2Cl)C(=O)C1=O [Example 190, (R)-3-((R)-2-(4-(3-aminopropyl)-2,3-dioxopiperazine-1-carboxamido)-2-(2-chloro-6-fluoro-3,4-dihydroxyphenyl)acetamido)-6-chloro-7-fluoro-2-hydroxy-3,4-dihydro-2H-benzo[e][1,2]oxaborinine-8-carboxylic acid]	> 100
CCN1CCN(C(=O)N[C@@H](C(=O)N[C@H]2Cc3cc(Cl)c(F)c(C(=O)O)c3OB2O)c2c(F)cc(O)c(O)c2Cl)C(=O)C1=O [Example 191, (R)-6-chloro-3-((R)-2-(2-chloro-6-fluoro-3,4-dihydroxyphenyl)-2-(4-ethyl-2,3-dioxopiperazine-1-carboxamido)acetamido)-7-fluoro-2-hydroxy-3,4-dihydro-2H-benzo[e][1,2]oxaborinine-8-carboxylic acid]	30 to 100
